Tests used:
[1] = test system: Cryptosporidium parvum; experiment: Inhibition of recombinant Cryptosporidium parvum FIKK assessed as change in melting temperature at 50 uM by differential static light scattering method
[2] = target: RAC-beta serine/threonine-protein kinase (Homo sapiens) (UniProt P31751); experiment: Inhibition of human PKBbeta (120 to 481 residues) assessed as residual activity at 500 nM in presence of 33P-ATP by filter binding assay relative to control
[3] = target: Serine/threonine-protein kinase Sgk1 (Homo sapiens) (UniProt O00141); experiment: Inhibition of human SGK1 (60 to 431 residues) assessed as residual activity at 500 nM in presence of 33P-ATP by filter binding assay relative to control
[4] = target: Serine/threonine-protein kinase ULK2 (Homo sapiens) (UniProt Q8IYT8); experiment: Inhibition of human ULK2 (1 to 1036 residues) assessed as residual activity at 500 nM in presence of 33P-ATP by filter binding assay relative to control
[5] = target: Dual specificity protein kinase TTK (Homo sapiens) (UniProt P33981); experiment: Inhibition of human TTK (1 to 857 residues) assessed as residual activity at 500 nM in presence of 33P-ATP by filter binding assay relative to control
[6] = target: Mitogen-activated protein kinase 12 (Homo sapiens) (UniProt P53778); experiment: Inhibition of human p38gamma (1 to 367 residues) assessed as residual activity at 500 nM in presence of 33P-ATP by filter binding assay relative to control
Mitogen-activated protein kinase 12 (Homo sapiens), sequence (P53778 whole entry, the tested form may be a part): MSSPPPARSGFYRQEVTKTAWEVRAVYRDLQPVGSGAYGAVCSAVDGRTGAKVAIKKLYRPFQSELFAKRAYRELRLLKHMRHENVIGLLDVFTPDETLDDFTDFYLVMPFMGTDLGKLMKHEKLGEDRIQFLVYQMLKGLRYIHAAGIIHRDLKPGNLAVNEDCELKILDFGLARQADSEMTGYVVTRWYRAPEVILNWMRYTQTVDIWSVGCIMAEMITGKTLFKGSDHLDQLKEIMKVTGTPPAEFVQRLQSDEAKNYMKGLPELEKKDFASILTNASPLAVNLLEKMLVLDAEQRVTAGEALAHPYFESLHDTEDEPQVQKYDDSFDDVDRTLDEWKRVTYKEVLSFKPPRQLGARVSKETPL

[7] = target: cAMP-dependent protein kinase catalytic subunit alpha (Homo sapiens) (UniProt P17612); experiment: Inhibition of human PKAalpha (2 to 351 residues) assessed as residual activity at 500 nM in presence of 33P-ATP by filter binding assay relative to control
[8] = target: Ribosomal protein S6 kinase alpha-5 (Homo sapiens) (UniProt O75582); experiment: Inhibition of human MSK1 (2 to 802 residues) assessed as residual activity at 500 nM in presence of 33P-ATP by filter binding assay relative to control
[9] = target: Insulin receptor (Homo sapiens) (UniProt P06213); experiment: Inhibition of human IR (1001 to 1382 residues) assessed as residual activity at 500 nM in presence of 33P-ATP by filter binding assay relative to control
Insulin receptor (Homo sapiens), sequence (P06213 28-758 limits assumed): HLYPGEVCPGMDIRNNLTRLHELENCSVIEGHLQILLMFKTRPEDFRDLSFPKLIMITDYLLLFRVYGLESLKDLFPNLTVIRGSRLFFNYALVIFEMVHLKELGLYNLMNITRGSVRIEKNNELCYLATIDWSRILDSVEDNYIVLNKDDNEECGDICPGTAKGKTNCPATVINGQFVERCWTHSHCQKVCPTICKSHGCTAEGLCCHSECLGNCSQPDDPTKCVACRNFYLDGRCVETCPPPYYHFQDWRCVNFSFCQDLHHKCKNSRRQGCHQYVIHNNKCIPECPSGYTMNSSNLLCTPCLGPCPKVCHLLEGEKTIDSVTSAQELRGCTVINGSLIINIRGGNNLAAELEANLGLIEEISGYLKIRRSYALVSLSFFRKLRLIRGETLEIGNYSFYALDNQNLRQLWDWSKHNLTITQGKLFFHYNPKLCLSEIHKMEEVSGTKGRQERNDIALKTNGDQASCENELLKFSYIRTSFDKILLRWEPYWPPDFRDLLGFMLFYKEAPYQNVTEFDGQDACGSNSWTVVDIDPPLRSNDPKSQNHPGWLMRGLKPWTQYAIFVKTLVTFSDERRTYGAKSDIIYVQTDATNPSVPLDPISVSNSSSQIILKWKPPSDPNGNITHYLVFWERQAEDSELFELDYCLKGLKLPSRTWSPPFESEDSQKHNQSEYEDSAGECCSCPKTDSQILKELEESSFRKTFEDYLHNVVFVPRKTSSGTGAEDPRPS
Insulin receptor (Homo sapiens), sequence (P06213 763-1382 limits assumed): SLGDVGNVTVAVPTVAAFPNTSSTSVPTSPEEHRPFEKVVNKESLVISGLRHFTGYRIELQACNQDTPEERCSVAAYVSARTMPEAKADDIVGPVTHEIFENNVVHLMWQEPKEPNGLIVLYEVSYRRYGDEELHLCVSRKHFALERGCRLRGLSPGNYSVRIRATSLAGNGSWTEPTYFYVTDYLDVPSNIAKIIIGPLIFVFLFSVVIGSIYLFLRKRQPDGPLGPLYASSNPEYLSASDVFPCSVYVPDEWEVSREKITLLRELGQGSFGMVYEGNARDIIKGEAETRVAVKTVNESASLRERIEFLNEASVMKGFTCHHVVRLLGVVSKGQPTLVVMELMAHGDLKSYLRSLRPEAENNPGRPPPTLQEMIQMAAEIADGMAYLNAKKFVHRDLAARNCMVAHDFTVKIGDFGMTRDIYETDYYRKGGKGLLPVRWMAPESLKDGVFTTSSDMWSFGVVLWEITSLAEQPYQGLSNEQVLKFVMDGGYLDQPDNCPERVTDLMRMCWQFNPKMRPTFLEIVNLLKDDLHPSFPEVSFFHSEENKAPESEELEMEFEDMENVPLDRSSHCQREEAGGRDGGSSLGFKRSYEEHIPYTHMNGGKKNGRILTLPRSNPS

[10] = target: Glycogen synthase kinase-3 beta (Homo sapiens) (UniProt P49841); experiment: Inhibition of human GSK3beta (2 to 420 residues) assessed as residual activity at 500 nM in presence of 33P-ATP by filter binding assay relative to control
[11] = target: SRSF protein kinase 1 (Homo sapiens) (UniProt Q96SB4); experiment: Inhibition of human SRPK1 (2 to 654 residues) assessed as residual activity at 500 nM in presence of 33P-ATP by filter binding assay relative to control
SRSF protein kinase 1 (Homo sapiens), sequence (Q96SB4 whole entry, the tested form may be a part): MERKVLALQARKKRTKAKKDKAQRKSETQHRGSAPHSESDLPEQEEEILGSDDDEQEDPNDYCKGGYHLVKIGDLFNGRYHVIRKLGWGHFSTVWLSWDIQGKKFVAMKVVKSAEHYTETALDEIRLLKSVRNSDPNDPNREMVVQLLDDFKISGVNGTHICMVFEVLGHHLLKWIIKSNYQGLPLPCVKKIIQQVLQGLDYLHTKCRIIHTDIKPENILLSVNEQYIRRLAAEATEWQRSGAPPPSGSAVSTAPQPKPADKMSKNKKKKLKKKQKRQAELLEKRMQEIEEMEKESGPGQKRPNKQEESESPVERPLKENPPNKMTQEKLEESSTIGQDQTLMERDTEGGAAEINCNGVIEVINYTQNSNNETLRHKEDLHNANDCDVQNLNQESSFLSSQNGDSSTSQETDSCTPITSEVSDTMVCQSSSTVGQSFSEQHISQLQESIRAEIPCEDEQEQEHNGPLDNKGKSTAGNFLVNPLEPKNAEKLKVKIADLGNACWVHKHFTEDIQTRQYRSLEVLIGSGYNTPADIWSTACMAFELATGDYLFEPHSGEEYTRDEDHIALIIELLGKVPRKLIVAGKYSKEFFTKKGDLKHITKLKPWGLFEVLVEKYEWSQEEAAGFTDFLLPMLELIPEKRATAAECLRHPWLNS

[12] = target: Tau-tubulin kinase 1 (Homo sapiens) (UniProt Q5TCY1); experiment: Inhibition of human TTBK1 (1 to 1321 residues) assessed as residual activity at 500 nM in presence of 33P-ATP by filter binding assay relative to control
[13] = target: Serine/threonine-protein kinase BRSK1 (Homo sapiens) (UniProt Q8TDC3); experiment: Inhibition of human BRSK1 (2 to 778 residues) assessed as residual activity at 500 nM in presence of 33P-ATP by filter binding assay relative to control
Serine/threonine-protein kinase BRSK1 (Homo sapiens), sequence (Q8TDC3 whole entry, the tested form may be a part): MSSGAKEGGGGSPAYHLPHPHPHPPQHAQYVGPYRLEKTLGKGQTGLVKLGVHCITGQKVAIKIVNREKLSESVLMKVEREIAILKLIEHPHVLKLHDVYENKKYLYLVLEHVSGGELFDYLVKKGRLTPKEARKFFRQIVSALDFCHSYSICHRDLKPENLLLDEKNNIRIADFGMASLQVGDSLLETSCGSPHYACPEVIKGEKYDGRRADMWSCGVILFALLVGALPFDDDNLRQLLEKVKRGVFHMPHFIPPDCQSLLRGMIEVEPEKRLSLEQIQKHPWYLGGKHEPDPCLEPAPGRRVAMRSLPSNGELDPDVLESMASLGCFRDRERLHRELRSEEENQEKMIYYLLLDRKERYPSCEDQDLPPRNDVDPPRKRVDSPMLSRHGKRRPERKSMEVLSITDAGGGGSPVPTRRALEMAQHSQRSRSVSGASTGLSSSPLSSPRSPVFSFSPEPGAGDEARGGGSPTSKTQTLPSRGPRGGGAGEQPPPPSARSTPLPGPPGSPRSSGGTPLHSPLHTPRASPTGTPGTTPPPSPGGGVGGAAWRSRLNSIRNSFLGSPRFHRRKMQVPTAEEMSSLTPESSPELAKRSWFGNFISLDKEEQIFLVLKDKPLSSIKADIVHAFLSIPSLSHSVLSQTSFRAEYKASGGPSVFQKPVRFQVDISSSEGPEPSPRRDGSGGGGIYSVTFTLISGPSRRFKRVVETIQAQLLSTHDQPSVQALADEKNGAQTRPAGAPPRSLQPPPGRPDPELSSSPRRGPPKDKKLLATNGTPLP

[14] = target: Serine/threonine-protein kinase Chk1 (Homo sapiens) (UniProt O14757); experiment: Inhibition of human CHK1 (1 to 476 residues) assessed as residual activity at 500 nM in presence of 33P-ATP by filter binding assay relative to control
[15] = target: Angiopoietin-1 receptor (Homo sapiens) (UniProt Q02763); experiment: Inhibition of human TIE2 (771 to 1124 residues) assessed as residual activity at 500 nM in presence of 33P-ATP by filter binding assay relative to control
[16] = target: MAP kinase-activated protein kinase 5 (Homo sapiens) (UniProt Q8IW41); experiment: Inhibition of human PRAK (1 to 471 residues) assessed as residual activity at 500 nM in presence of 33P-ATP by filter binding assay relative to control
[17] = target: Proto-oncogene tyrosine-protein kinase Src (Homo sapiens) (UniProt P12931); experiment: Inhibition of human SRC (1 to 536 residues) assessed as residual activity at 500 nM in presence of 33P-ATP by filter binding assay relative to control
[18] = target: Homeodomain-interacting protein kinase 3 (Homo sapiens) (UniProt Q9H422); experiment: Inhibition of human HIPK3 (161 to 562 residues) assessed as residual activity at 500 nM in presence of 33P-ATP by filter binding assay relative to control
Homeodomain-interacting protein kinase 3 (Homo sapiens), sequence (Q9H422 whole entry, looked up, the tested form may be a part): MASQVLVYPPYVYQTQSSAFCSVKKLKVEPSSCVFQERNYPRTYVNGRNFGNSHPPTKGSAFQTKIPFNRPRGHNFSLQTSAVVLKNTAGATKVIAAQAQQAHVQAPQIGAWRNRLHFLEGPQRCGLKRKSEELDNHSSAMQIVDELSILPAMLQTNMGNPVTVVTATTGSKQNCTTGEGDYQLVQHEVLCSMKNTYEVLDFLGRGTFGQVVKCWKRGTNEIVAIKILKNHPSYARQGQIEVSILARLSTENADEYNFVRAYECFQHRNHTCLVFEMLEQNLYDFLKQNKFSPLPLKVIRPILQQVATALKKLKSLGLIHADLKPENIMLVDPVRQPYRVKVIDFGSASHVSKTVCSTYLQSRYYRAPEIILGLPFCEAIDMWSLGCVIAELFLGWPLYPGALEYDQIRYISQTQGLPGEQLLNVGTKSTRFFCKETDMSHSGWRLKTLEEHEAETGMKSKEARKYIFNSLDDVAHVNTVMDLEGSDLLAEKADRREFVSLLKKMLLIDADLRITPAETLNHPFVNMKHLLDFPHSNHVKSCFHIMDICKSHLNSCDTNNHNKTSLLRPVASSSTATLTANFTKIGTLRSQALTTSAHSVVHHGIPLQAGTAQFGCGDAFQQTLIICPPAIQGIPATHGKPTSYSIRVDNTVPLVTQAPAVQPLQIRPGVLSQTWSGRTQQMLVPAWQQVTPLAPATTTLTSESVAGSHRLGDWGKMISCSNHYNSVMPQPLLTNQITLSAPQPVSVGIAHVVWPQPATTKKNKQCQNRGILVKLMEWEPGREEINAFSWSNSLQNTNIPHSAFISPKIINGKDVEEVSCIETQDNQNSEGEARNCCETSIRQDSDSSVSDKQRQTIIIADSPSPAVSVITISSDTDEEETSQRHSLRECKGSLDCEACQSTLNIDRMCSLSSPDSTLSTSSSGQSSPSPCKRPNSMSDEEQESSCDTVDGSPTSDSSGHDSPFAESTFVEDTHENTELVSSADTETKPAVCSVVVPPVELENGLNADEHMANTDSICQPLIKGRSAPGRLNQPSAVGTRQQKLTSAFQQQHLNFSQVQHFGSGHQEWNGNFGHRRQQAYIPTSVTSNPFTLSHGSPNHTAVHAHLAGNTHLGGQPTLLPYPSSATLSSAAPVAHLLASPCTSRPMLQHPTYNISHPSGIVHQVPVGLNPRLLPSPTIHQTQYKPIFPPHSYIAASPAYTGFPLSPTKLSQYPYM

[19] = target: Ephrin type-A receptor 4 (Homo sapiens) (UniProt P54764); experiment: Inhibition of human EPHA4 (570 to 986 residues) assessed as residual activity at 500 nM in presence of 33P-ATP by filter binding assay relative to control
[20] = target: Mitogen-activated protein kinase 7 (Homo sapiens) (UniProt Q13164); experiment: Inhibition of human ERK5 (1 to 816 residues) assessed as residual activity at 500 nM in presence of 33P-ATP by filter binding assay relative to control
[21] = target: MAP kinase-activated protein kinase 3 (Homo sapiens) (UniProt Q16644); experiment: Inhibition of human MAPKAPK3 (2 to 382 residues) assessed as residual activity at 500 nM in presence of 33P-ATP by filter binding assay relative to control
[22] = target: Ephrin type-A receptor 2 (Homo sapiens) (UniProt P29317); experiment: Inhibition of human EPHA2 (591 to 976 residues) assessed as residual activity at 500 nM in presence of 33P-ATP by filter binding assay relative to control
[23] = target: Serine/threonine-protein kinase 33 (Homo sapiens) (UniProt Q9BYT3); experiment: Inhibition of human STK33 (1 to 514 residues) assessed as residual activity at 500 nM in presence of 33P-ATP by filter binding assay relative to control
Serine/threonine-protein kinase 33 (Homo sapiens), sequence (Q9BYT3 whole entry, looked up, the tested form may be a part): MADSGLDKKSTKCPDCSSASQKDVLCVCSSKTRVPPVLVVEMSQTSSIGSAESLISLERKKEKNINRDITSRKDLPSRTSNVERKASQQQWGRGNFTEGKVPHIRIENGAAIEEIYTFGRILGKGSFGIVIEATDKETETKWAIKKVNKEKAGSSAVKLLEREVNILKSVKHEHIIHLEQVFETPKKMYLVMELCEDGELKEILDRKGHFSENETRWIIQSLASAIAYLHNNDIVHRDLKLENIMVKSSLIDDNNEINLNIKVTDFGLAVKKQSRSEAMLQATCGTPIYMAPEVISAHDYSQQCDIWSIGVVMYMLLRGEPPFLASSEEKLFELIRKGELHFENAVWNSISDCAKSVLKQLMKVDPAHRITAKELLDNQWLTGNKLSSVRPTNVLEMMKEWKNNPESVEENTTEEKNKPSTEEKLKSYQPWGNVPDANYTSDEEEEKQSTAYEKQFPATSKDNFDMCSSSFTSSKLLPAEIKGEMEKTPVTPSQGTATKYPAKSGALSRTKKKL

[24] = target: Dual specificity mitogen-activated protein kinase kinase 6 (Homo sapiens) (UniProt P52564); experiment: Inhibition of human MKK6 (2 to 334 residues) assessed as residual activity at 500 nM in presence of 33P-ATP by filter binding assay relative to control
[25] = target: Protein-tyrosine kinase 6 (Homo sapiens) (UniProt Q13882); experiment: Inhibition of human BRK (1 to 451 residues) assessed as residual activity at 500 nM in presence of 33P-ATP by filter binding assay relative to control
[26] = Ratio of EC50 for antiparasitic activity against Cryptosporidium parvum Iowa oocysts infected in human HCT8 cells to IC50 for recombinant Cryptosporidium parvum FIKK; type: functional, cell-based
[27] = Ratio of EC50 for antiparasitic activity against Cryptosporidium parvum Iowa oocysts infected in human HCT8 cells to IC50 for Cryptosporidium parvum CDPK1; type: functional

ΔTm [1]: 5.2 °C
Activity [2]: 127%
Activity [3]: 124%
Activity [4]: 118%
Activity [5]: 117%
Activity [6]: 116%
Activity [7]: 115%
Activity [8]: 115%
Activity [9]: 115%
Activity [10]: 112%
Activity [11]: 112%
Activity [12]: 112%
Activity [13]: 111%
Activity [14]: 109%
Activity [15]: 106%
Activity [16]: 105%
Activity [17]: 105%
Activity [18]: 104%
Activity [19]: 104%
Activity [20]: 100%
Activity [21]: 100%
Activity [22]: 99%
Activity [23]: 97%
Activity [24]: 96%
Activity [25]: 74%
Structure (SMILES): Cc1cccc(-c2nc(N)sc2-c2ccc3ncccc3n2)c1
Ratio [26]: 12800
Ratio [27]: 14
